The values that follow come from PMC6152318 (Molecules : A Journal of Synthetic Chemistry and Natural …, 2017).

The structures appear in SMILES notation.

Series [1] has as its target T1, Human serum albumin (HSA) (Homo sapiens, UniProt P02768).
T1 construct: Fatty acid free HSA and warfarin sodium were purchased from Sigma-Aldrich; purchased Sigma-Aldrich (St. Louis, MO, USA)
Kind of series: Binding constants by quenching of HSA tryptophan fluorescence. Particulars: for K ± S.D. (binding constant): 6 μM HSA, pH 7.4, 25 °C, excitation 295 nm, 1:1 binding model. Here is the method:
In all experiments, the final co-solvent concentration was held below 5%. This was done to prevent conformational changes of HSA due to changes in dielectric constant of the solvent.
Steady-state fluorescence was recorded using a thermostated Safas Xenius fluorometer (Safas Monaco, Monaco) with an integrated stirrer. All studies were performed at 25 ± 1 °C using 10 nm excitation and emission slit widths. […] Measurements were performed in duplicate.
A stock solution of a single ligand was gradually added via syringe to a 2 mL of a 6 μM HSA solution placed in a quartz cell. Measurements were conducted at the excitation wavelength of 295 nm and emission was recorded in the 310–400 nm range enabling calculations of corresponding binding constants. […] Binding constants were determined according to Dufour and Dangles. A Scatchard analysis was performed assuming n identical binding sites on HSA. Values for binding constant (K), molar fluorescence intensity of the complex (f), and the stoichiometric coefficient (n) were estimated by fitting the F vs. Lt curves against Equations (1) and (2) using a least-square regression program Scientist (MicroMath, Salt Lake City, UT, USA), where F is fluorescence intensity, [L] the free ligand concentration, [Lt] the total ligand concentration, and c the total albumin concentration. […] In all cases, the inner filter effect was taken into account by using absorption of free ligands at excitation and emission wavelengths (εex and εem, respectively) (Equation (3)), where Fcorr is the fluorescence corrected for the inner filter effect, F0 is the measured fluorescence, ε is the sum of εex and εem, l = 0.65 is the optical path and c is the flavonoid concentration. (1) Fcorr=fcnK[L]/1+K[L] (2) [Lt]=[L](1+ncK/1+K[L]) (3) F0=Fcorr×10^−εlc

Series [2] concerns HSA. The following applies: cited from earlier work.
Series [3] has as its system HSA. The following applies: of its intensity without warfarin; cited from earlier work.
For series [4], the target named is Human serum albumin (HSA) IIA binding site (Homo sapiens, UniProt P02768). In words: Flavonoid fluorescence (excitation 450 nm) on HSA pre-saturated with warfarin (simultaneous binding / displacement). Here is the method: HSA was freshly dissolved in Dulbecco’s phosphate-buffered saline pH 7.4 (137 mM sodium chloride, 2.7 mM potassium chloride, 8.1 mM disodium hydrogen phosphate, 1.47 mM potassium dihydrogen phosphate) immediately before measurements. […]. In all experiments, the final co-solvent concentration was held below 5%. This was done to prevent conformational changes of HSA due to changes in dielectric constant of the solvent.
Human serum albumin (HSA) IIA binding site, sequence (P02768 25-609): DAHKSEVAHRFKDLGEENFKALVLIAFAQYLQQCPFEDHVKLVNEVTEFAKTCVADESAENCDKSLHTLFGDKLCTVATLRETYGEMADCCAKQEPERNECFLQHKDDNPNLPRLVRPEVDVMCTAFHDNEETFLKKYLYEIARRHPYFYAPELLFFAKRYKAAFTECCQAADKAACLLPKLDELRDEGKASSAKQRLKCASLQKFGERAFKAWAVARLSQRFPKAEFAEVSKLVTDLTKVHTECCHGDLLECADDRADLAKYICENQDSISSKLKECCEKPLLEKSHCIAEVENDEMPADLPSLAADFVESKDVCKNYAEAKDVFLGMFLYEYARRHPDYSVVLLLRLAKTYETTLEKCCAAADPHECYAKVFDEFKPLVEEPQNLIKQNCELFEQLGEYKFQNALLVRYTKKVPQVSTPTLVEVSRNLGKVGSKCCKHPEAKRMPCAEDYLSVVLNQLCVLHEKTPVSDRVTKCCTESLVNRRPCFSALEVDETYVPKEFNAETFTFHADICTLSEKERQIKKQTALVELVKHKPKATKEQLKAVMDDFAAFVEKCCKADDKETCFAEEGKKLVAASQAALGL
Steady-state fluorescence was recorded using a thermostated Safas Xenius fluorometer (Safas Monaco, Monaco) with an integrated stirrer. All studies were performed at 25 ± 1 °C using 10 nm excitation and emission slit widths. […] Higher concentrations of HSA and ligands were not used due to poor solubility of ligands and high influence of ligand absorption. Measurements were performed in duplicate.

Series [5] can be described thus: Flavonoid fluorescence in buffer solution without HSA.
Where [6] appears, read: HSA 0-92% saturated with warfarin.

T1 sequence (P02768 25-609): as above

Usually Kd stands for the constant that tells how readily two partners part at equilibrium. Read a high Kd as lower affinity. In turn, `O=c1cc(-c2ccc(O)c(O)c2)oc2cc(O)c([C@@H]3O[C@H](CO)[C@@H](O)[C@H](O)[C@H]3O)c(O)c12` [Isoorientin] had a Kd in series [1] of 21.9 µM.

Consider `C[C@@H]1O[C@@H](OC[C@H]2O[C@@H](Oc3c(-c4ccc(O)c(O)c4)oc4cc(O)cc(O)c4c3=O)[C@H](O)[C@@H](O)[C@@H]2O)[C@H](O)[C@H](O)[C@H]1O` [Rutin], for which, in series [1], binding was put at a Kd of 34.2 µM.

As to `O=c1c(O[C@@H]2O[C@H](CO)[C@H](O)[C@H](O)[C@H]2O)c(-c2ccc(O)c(O)c2)oc2cc(O)cc(O)c12` [Hyperoside], the Kd in series [1] is 30.9 µM.

As for `CC(=O)CC(c1ccccc1)c1c(O)c2ccccc2oc1=O` (stereo not shown) [Warfarin], the “Fraction of warfarin in blood bound to HSA” value in series [2] is on record as more than 99%.

Regarding `O=c1cc(-c2ccc(O)c(O)c2)oc2cc(O[C@@H]3O[C@H](CO)[C@@H](O)[C@H](O)[C@H]3O)cc(O)c12` [Cynaroside], in series [1], the “K ± S.D. (binding constant)” value was 4.20 ± 0.25 × 10^4 M^−1.

Regarding `O=c1c(O)c(-c2ccc(O)c(O)c2)oc2cc(O)cc(O)c12` [Quercetin], the “Relative STD-NMR signal intensity in presence of warfarin” value in series [3] is recorded as ~ 40%. Further, in series [4] (setting [6]), the “Effect of warfarin on flavonoid Fmax (maximum fluorescence)” value is recorded as “slightly decreased”. In addition, the “Effect of warfarin on flavonoid cmax (concentration needed to achieve Fmax)” value in series [4] (setting [6]) is given as “slight increase”. Moreover, the Absolute fluorescence intensity in series [4] (flavonoid 2,00 uM, 0% occupied HSA) is given as 14,1006; in series [4] (flavonoid 2,00 uM, 22% occupied HSA), 14,3985; in series [4] (flavonoid 2,00 uM, 38% occupied HSA) it was 15,6001; in series [4] (flavonoid 2,00 uM, 63% occupied HSA), 14,9774; in series [4] (flavonoid 2,00 uM, 92% occupied HSA), 12,2760; in series [4] (flavonoid 4,00 uM, 0% occupied HSA), 18,1924. The Absolute fluorescence intensity in series [4] (flavonoid 4,00 uM, 22% occupied HSA) is 19,1798; in series [4] (flavonoid 4,00 uM, 38% occupied HSA), 20,1073; in series [4] (flavonoid 4,00 uM, 63% occupied HSA), 20,0687; in series [4] (flavonoid 4,00 uM, 92% occupied HSA), 16,0796; in series [4] (flavonoid 6,00 uM, 0% occupied HSA), 21,7864; in series [4] (flavonoid 6,00 uM, 22% occupied HSA), 22,8342. The Absolute fluorescence intensity in series [4] (flavonoid 6,00 uM, 38% occupied HSA) is recorded as 23,2658; in series [4] (flavonoid 6,00 uM, 63% occupied HSA) it was 23,0451; in series [4] (flavonoid 6,00 uM, 92% occupied HSA), 18,9492; in series [4] (flavonoid 7,99 uM, 0% occupied HSA), 25,2012; in series [4] (flavonoid 7,99 uM, 22% occupied HSA) it was 26,8970; in series [4] (flavonoid 7,99 uM, 38% occupied HSA), 26,0412. The Absolute fluorescence intensity in series [4] (flavonoid 7,99 uM, 63% occupied HSA) is listed as 25,4057; in series [4] (flavonoid 7,99 uM, 92% occupied HSA), 21,2821; in series [4] (flavonoid 11,98 uM, 0% occupied HSA) it was 30,3340; in series [4] (flavonoid 11,98 uM, 22% occupied HSA), 31,0510; in series [4] (flavonoid 11,98 uM, 38% occupied HSA) it was 30,0611; in series [4] (flavonoid 11,98 uM, 63% occupied HSA) it was 29,3172. Further, the Absolute fluorescence intensity is reported as 25,1156 in series [4] (flavonoid 11,98 uM, 92% occupied HSA); 33,9655 in series [4] (flavonoid 15,97 uM, 0% occupied HSA); 33,9646 in series [4] (flavonoid 15,97 uM, 22% occupied HSA); 33,4123 in series [4] (flavonoid 15,97 uM, 38% occupied HSA); 32,2916 in series [4] (flavonoid 15,97 uM, 63% occupied HSA); 28,2109 in series [4] (flavonoid 15,97 uM, 92% occupied HSA). Moreover, the Absolute fluorescence intensity was 38,4893 in series [4] (flavonoid 23,93 uM, 0% occupied HSA); 37,6942 in series [4] (flavonoid 23,93 uM, 22% occupied HSA); 37,3757 in series [4] (flavonoid 23,93 uM, 38% occupied HSA); 36,2415 in series [4] (flavonoid 23,93 uM, 63% occupied HSA); 32,2392 in series [4] (flavonoid 23,93 uM, 92% occupied HSA); 40,5581 in series [4] (flavonoid 31,87 uM, 0% occupied HSA). Besides, the Absolute fluorescence intensity in series [4] (flavonoid 31,87 uM, 22% occupied HSA) is 39,7022; in series [4] (flavonoid 31,87 uM, 38% occupied HSA), 39,4192; in series [4] (flavonoid 31,87 uM, 63% occupied HSA) it was 37,9878; in series [4] (flavonoid 31,87 uM, 92% occupied HSA), 34,7552; in series [4] (flavonoid 39,80 uM, 0% occupied HSA) it was 41,9281; in series [4] (flavonoid 39,80 uM, 22% occupied HSA), 41,0854. The Absolute fluorescence intensity in series [4] (flavonoid 39,80 uM, 38% occupied HSA) was 41,0246; in series [4] (flavonoid 39,80 uM, 63% occupied HSA) it was 39,4685; in series [4] (flavonoid 39,80 uM, 92% occupied HSA), 36,6753; in series [4] (flavonoid 47,71 uM, 0% occupied HSA) it was 41,6617; in series [4] (flavonoid 47,71 uM, 22% occupied HSA), 41,5821; in series [4] (flavonoid 47,71 uM, 38% occupied HSA), 41,3733. Also, the Absolute fluorescence intensity in series [4] (flavonoid 47,71 uM, 63% occupied HSA) is reported as 40,4449; in series [4] (flavonoid 47,71 uM, 92% occupied HSA), 37,3158; in series [4] (flavonoid 63,49 uM, 0% occupied HSA), 40,9892; in series [4] (flavonoid 63,49 uM, 22% occupied HSA) it was 40,4660; in series [4] (flavonoid 63,49 uM, 38% occupied HSA) it was 40,7086; in series [4] (flavonoid 63,49 uM, 63% occupied HSA) it was 39,7702. Further, the Absolute fluorescence intensity in series [4] (flavonoid 63,49 uM, 92% occupied HSA) is listed as 38,0617; in series [4] (flavonoid 79,21 uM, 0% occupied HSA) it was 39,3310; in series [4] (flavonoid 79,21 uM, 22% occupied HSA), 39,3997; in series [4] (flavonoid 79,21 uM, 38% occupied HSA), 39,3849; in series [4] (flavonoid 79,21 uM, 63% occupied HSA), 38,8686; in series [4] (flavonoid 79,21 uM, 92% occupied HSA) it was 37,3045. For the same molecule, the Absolute fluorescence intensity in series [4] (flavonoid 98,77 uM, 0% occupied HSA) was 37,4633; in series [4] (flavonoid 98,77 uM, 22% occupied HSA), 37,3641; in series [4] (flavonoid 98,77 uM, 38% occupied HSA), 37,6865; in series [4] (flavonoid 98,77 uM, 63% occupied HSA) it was 37,3324; in series [4] (flavonoid 98,77 uM, 92% occupied HSA), 36,3823; in series [5] (flavonoid 2,00 uM), 0,8077. Besides, the Absolute fluorescence intensity in series [5] (flavonoid 4,00 uM) is on record as 0,9540; in series [5] (flavonoid 7,99 uM) it was 1,1279; in series [5] (flavonoid 15,97 uM), 1,3080; in series [5] (flavonoid 31,87 uM), 1,5574; in series [5] (flavonoid 47,71 uM) it was 1,7477; in series [5] (flavonoid 63,49 uM), 2,0820. The values for the Absolute fluorescence intensity in series [5] (flavonoid 79,21 uM) and in series [5] (flavonoid 98,77 uM) were 2,2472 and 2,4600, respectively. The same molecule had a Kd in series [1] of 6.94 µM.

On to `O=C(O)[C@H]1O[C@@H](Oc2c(-c3ccc(O)c(O)c3)oc3cc(O)cc(O)c3c2=O)[C@H](O)[C@@H](O)[C@@H]1O`, for which the “K ± S.D. (binding constant)” value in series [1] is 5.36 ± 0.13 × 10^4 M^−1.

`O=c1c(O[C@@H]2O[C@H](CO)[C@@H](O)[C@H](O)[C@H]2O)c(-c2ccc(O)c(O)c2)oc2cc(O)cc(O)c12` [Isoquercitrin] showed a Kd in series [1] of 22.4 µM.
